# Data as given in ChEMBL document CHEMBL1806463, “Synthesis, biological evaluation and docking studies of octane-carboxamide based renin inhibitors with extended segments toward S3' site of renin” (Bioorg Med Chem, 2011).
# Molecular target: T1, Renin (Homo sapiens) (UniProt P00797)
# T1 sequence (whole entry): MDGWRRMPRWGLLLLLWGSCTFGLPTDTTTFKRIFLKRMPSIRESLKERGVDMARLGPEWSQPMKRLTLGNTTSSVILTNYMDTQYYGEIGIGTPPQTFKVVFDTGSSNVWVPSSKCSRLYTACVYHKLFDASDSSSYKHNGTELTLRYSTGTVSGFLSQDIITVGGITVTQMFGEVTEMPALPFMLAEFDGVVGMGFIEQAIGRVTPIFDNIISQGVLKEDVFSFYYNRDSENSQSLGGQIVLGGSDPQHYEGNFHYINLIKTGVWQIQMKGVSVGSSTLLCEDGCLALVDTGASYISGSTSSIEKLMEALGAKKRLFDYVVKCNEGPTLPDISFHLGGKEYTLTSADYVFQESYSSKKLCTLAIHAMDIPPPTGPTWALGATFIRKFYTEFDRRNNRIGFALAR
# Assay: Ratio IC50 for aliskiren to compound for renin
row,SMILES,Ratio IC50
1,COCCCOc1cc(C[C@@H](C[C@H](N)[C@@H](O)C[C@H](C(=O)NCC(C)(C)Cn2ccnn2)C(C)C)C(C)C)ccc1OC,10

# Molecular target: T2, Renin (Homo sapiens, UniProt P00797)
# T2 sequence (P00797 whole entry): T1 sequence (whole entry)
# Assay: Inhibition of renin measured every 30 secs for 15 mins by fluorimetric analysis
row,SMILES,IC50 [nM]
1,CCC(=O)NCC(C)(C)CNC(=O)[C@@H](C[C@H](O)[C@@H](N)C[C@H](Cc1ccc(OC)c(OCCCOC)c1)C(C)C)C(C)C,1.08
2,COCCCOc1cc(C[C@@H](C[C@H](N)[C@@H](O)C[C@H](C(=O)NCC(C)(C)CNS(C)(=O)=O)C(C)C)C(C)C)ccc1OC,4.23
3,COCCCOc1cc(C[C@@H](C[C@H](N)[C@@H](O)C[C@H](C(=O)NCC(C)(C)CNC(=O)CC(C)C)C(C)C)C(C)C)ccc1OC,1.48
4,COCCCOc1cc(C[C@@H](C[C@H](N)[C@@H](O)C[C@H](C(=O)NCC(C)(C)CN)C(C)C)C(C)C)ccc1OC,2.88
5,COCCCOc1cc(C[C@@H](C[C@H](N)[C@@H](O)C[C@H](C(=O)NCC(C)(C)CNC(=O)c2ccccc2)C(C)C)C(C)C)ccc1OC,1.02
6,COCCCOc1cc(C[C@@H](C[C@H](N)[C@@H](O)C[C@H](C(=O)NCC(C)(C)CNC(=O)C(F)(F)F)C(C)C)C(C)C)ccc1OC,4.85
7,COCCCOc1cc(C[C@@H](C[C@H](N)[C@@H](O)C[C@H](C(=O)NCC(C)(C)CNC(=O)Cc2ccccc2)C(C)C)C(C)C)ccc1OC,1.64
8,COCCCOc1cc(C[C@@H](C[C@H](N)[C@@H](O)C[C@H](C(=O)NCC(C)(C)CNS(=O)(=O)c2ccc(C)cc2)C(C)C)C(C)C)ccc1OC,1.15
9,CCCC(=O)NCC(C)(C)CNC(=O)[C@@H](C[C@H](O)[C@@H](N)C[C@H](Cc1ccc(OC)c(OCCCOC)c1)C(C)C)C(C)C,1.12
10,COCCCOc1cc(C[C@@H](C[C@H](N)[C@@H](O)C[C@H](C(=O)NCC(C)(C)CNC(=O)C(C)(C)C)C(C)C)C(C)C)ccc1OC,4.13
11,COCCCOc1cc(C[C@@H](C[C@H](N)[C@@H](O)C[C@H](C(=O)NCC(C)(C)CNC(=O)c2ccc(OC)cc2)C(C)C)C(C)C)ccc1OC,3.84

# Compounds with a lower IC50, results first:
row,IC50 [nM],SMILES
1,0.81,CCOC(=O)NCC(C)(C)CNC(=O)[C@@H](C[C@H](O)[C@@H](N)C[C@H](Cc1ccc(OC)c(OCCCOC)c1)C(C)C)C(C)C
2,0.79,COCCCOc1cc(C[C@@H](C[C@H](N)[C@@H](O)C[C@H](C(=O)NCC(C)(C)CNS(N)(=O)=O)C(C)C)C(C)C)ccc1OC
3,0.91,CCS(=O)(=O)NCC(C)(C)CNC(=O)[C@@H](C[C@H](O)[C@@H](N)C[C@H](Cc1ccc(OC)c(OCCCOC)c1)C(C)C)C(C)C
4,0.36,COCCCOc1cc(C[C@@H](C[C@H](N)[C@@H](O)C[C@H](C(=O)NCC(C)(C)CNC(=O)N(C)C)C(C)C)C(C)C)ccc1OC
5,0.2,COCCCOc1cc(C[C@@H](C[C@H](N)[C@@H](O)C[C@H](C(=O)NCC(C)(C)Cn2ccnn2)C(C)C)C(C)C)ccc1OC
6,0.83,CCCCCC(=O)NCC(C)(C)CNC(=O)[C@@H](C[C@H](O)[C@@H](N)C[C@H](Cc1ccc(OC)c(OCCCOC)c1)C(C)C)C(C)C
